Each structure is given as a SMILES string.

Assay [1] has as its target T1, Cathepsin L2 (Homo sapiens, UniProt O60911).
T1 sequence (O60911 whole entry): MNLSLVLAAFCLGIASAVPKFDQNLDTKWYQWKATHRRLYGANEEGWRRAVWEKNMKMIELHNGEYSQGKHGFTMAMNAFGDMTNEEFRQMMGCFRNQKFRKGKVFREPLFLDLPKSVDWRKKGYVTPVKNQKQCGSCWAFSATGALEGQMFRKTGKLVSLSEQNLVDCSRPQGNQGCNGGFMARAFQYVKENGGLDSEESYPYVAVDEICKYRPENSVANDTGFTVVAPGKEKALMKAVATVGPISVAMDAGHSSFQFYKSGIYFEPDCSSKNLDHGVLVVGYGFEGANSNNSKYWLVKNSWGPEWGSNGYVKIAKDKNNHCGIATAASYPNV
Put plainly: Inhibition of human recombinant cathepsin V expressed in Pichia pastoris by Lineweaver-Burk double-reciprocal plots.

The target of assay [2] is T1, Cathepsin L2. Put plainly: Inhibition of human recombinant cathepsin V expressed in Pichia pastoris.

As usually defined, the Ki is a dissociation constant, usually derived from enzyme kinetics or from competition with a known ligand. Broadly, the IC50 is the concentration needed to halve the response being measured. Turning to `COc1c(O)c(CC=C(C)C)c(O)c2c(=O)c3c(CC=C(C)C)ccc(O)c3n(C)c12`, the Ki on Cathepsin L2 [1] came out at 500 nM. Moreover, the IC50 at Cathepsin L2 [2] amounted to 2500 nM.
Taken in the same sequence, the figures for `COc1c2c(c(O)c3c(=O)c4cccc(O)c4n(C)c13)CC(C(C)(C)O)O2` (stereo not given) were 4400 nM and 5200 nM.
Taken in the same sequence, the figures for `COc1c(O)c2c(c3c(=O)c4cccc(O)c4n(C)c13)OC(C)(C)C(O)C2` (stereo not given) were 1700 nM and 2800 nM.
For the compound `Cn1c2c(O)cccc2c(=O)c2c(O)cc3c(c21)C=CC(C)(C)O3`, the IC50 at Cathepsin L2 [2] stood at 48000 nM.
`CC(C)=CCc1c(O)cc2c(c1O)c(=O)c1c(CC=C(C)C)ccc(O)c1n2C`: the Ki on Cathepsin L2 [1] turned out to be 1200 nM. The IC50 at Cathepsin L2 [2] is 3900 nM.
Taken in the same sequence, the figures for `COc1c(OC)c(OC)c2c(c1O)c(=O)c1cccc(O)c1n2C` [CITIBRASINE] were 200 nM and 1200 nM.
For `COc1c(O)cc(O)c2c(=O)c3cccc(O)c3n(C)c12` [CITRUSININE-II], the Ki at Cathepsin L2 [1] came out at 4200 nM. Moreover, at Cathepsin L2 [2], the IC50 was 10000 nM.
Taken in the same sequence, the figures for `COc1cc(O)c2c(=O)c3cccc(O)c3n(C)c2c1OC` [CITRUSININE-I] were 1000 nM and 2200 nM.
Taken in the same sequence, the figures for `COc1c(O)c(CC=C(C)C)c(O)c2c(=O)c3cccc(O)c3n(C)c12` [GLYCOCITRINE-IV] were 1100 nM and 2200 nM.
Taken in the same sequence, the figures for `CC(C)=CCc1c(O)cc(O)c2c(=O)c3cccc(O)c3n(C)c12` [GLYCOCITRINE-I] were 10000 nM and 25000 nM.
With `COc1c2c(c(O)c3c(=O)c4cccc(O)c4n(C)c13)C=CC(C)(C)O2` [PYRANOFOLINE], the IC50 on Cathepsin L2 [2] was 44000 nM.

Values taken from ChEMBL document CHEMBL1667860, “Acridone alkaloids as potent inhibitors of cathepsin V” (Bioorg Med Chem, 2011).
